# Experimental data published in patent US20250313828A1, “SYNTHETIC GENETIC PLATFORM IN EUKARYOTE CELLS AND METHODS OF USE” (University of Washington, priority 2022, published 2025).
# Entries after “also recorded” stand apart in the source; their conditions may differ.
# Tests used:
# [1] = test system: auxin promoter::Venus; experiment: Repression activity of H1 helices fused to IAA3 in the AtARCSc, fluorescence flow cytometry; assay type: cell-based, Saccharomyces cerevisiae; conditions: for Repression activity of H1-HA-IAA3 library constructs: H1-HA-IAA3 expressed off a plasmid, static ARC components integrated at URA3
# [2] = assay type: cell-based, Saccharomyces cerevisiae
# Experimental: Western Blot. […] Cells were harvested by centrifugation. Cells were lysed by vortexing for 5 min in the presence of 200 μl of 0.5-mm diameter acid washed glass beads and 200 μl SUMEB buffer (1% SDS, 8 M urea, 10 mM MOPS pH 6.8, 10 mM EDTA, 0.01% bromophenol blue, 1 mM PMSF) per one OD unit of original culture. Lysates were then incubated at 65° C. for 10 min and cleared by centrifugation prior to electrophoresis and blotting. Antibodies: anti-HA-HRP (REF-12013819001, Clone 3F10, Roche/Millipore Sigma, St. Louis, MO), anti-PGK1 (ab113687, AbCam). Protein concentrations were quantified using ImageJ, with PGK1 protein measured in each strain to normalize protein concentrations across strains. To compare protein concentrations to […]1, these were then normalized to TPL concentration using this equation: ([[…]1 normalized protein concentrations were plotted on a Log 2 scale.
# [3] = target: T1, H1 sequence of TBL1 (Homo sapiens, UniProt O60907); experiment: Small molecule testing on the yeast H1 platform, TBL1 helix fused to IAA3; assay type: cell-based; conditions: yeast cultured 4 hours with compound, flow cytometry, absence of Beta-catenin
# T1 construct: expressed in transfected cells; host or cells: Saccharomyces cerevisiae reporter strain (AFB2, ARF19 and auxin promoter::Venus integrated at URA3)
# Experimental: (§1) Yeast were grown overnight from a dilution of […] at 30° C. and 250 rpm. When cell density reached […] either control (DMSO) or small molecule BC2059 were added at the indicated concentration, and cultured for 4 hours before being measured for fluorescence by flow cytometry. Each data point represents three independent time-course flow cytometry experiments of the helices indicated, all fused to IAA3. Every point represents the average fluorescence of at least 10,000 individually measured yeast cells (a.u.: arbitrary units). Error bars are standard error.
# [4] = target: T2, TPL sequence (Arabidopsis thaliana, UniProt Q94AI7); experiment: Small molecule testing on the yeast H1 platform, TPL helix fused to IAA3; assay type: cell-based; conditions: yeast cultured 4 hours with compound, flow cytometry
# T2 construct: a construct carrying only the first 18 amino acids of Helix 1 of the LisH domain fused to IAA3; expressed in transfected cells; host or cells: Saccharomyces cerevisiae reporter strain (AFB2, ARF19 and auxin promoter::Venus integrated at URA3)
# Experimental: as §1
# [5] = test system: mutant TBL1 H1 sequence; experiment: Cancer variant detection using the yeast H1 platform; assay type: cell-based, Homo sapiens (Human); conditions: 500 nM, 4 hours, compared with wild type TBL1 H1
# Experimental: as §1, with “of the TBL1 or control helices indicated,” for “of the helices indicated,”
# Yeast carrying either the wild type or mutant TBL1 H1 sequence were cultured in the presence or absence of 500 nM Tegatrabetan and fluorescence measured by flow cytometry. […] This approach is particularly relevant to personalized medicine for a given mutation in a patient.
# [6] = test system: synthetic auxin reporter DR5-Venus; experiment: H1 repression assay, transient transformation in tobacco leaves; assay type: in vivo, Nicotiana benthamiana; conditions: transient expression in tobacco, IAA3 EAR motif mutated to AxAxA
# Experimental: Reporter activation was measured in four separate leaf injections (biological replicates) in two days of injection (boxplots illustrated in FIG. 5C are pooled data from one day, with two replicates divided on right and left panels). Each leaf was excised at 8 locations and measured for Venus fluorescence using a plate scanner. pDR5:Venus: the synthetic DR5 auxin promoter (Ulmasov et al., Plant Cell 9, 1963-1971, 1997) driving Venus; ARF19: […]; […] Plant growth. […] Strain density was normalized to an OD600 of 1 for each strain in the final mixture of strains before injection into tobacco leaves. Leaves were removed, and eight different regions were excised using a hole punch, placed into a 96-well microtiter plate with 100 μl of water. Each leaf punch was scanned in a 4×4 grid for yellow and red fluorescence using a plate scanner (Tecan Spark, Tecan Trading AG, Switzerland). Fluorescence data was quantified and plotted in R (ggplots2).
molecule,measurement,setting,value
"1853M: cancer variant H1 KELLLLMRNHLIS, SEQ ID NO: 85",Repression activity of H1-HA-IAA3 library constructs,[1],slightly decrease
same,Protein accumulation / stability,[2],slightly increasing protein accumulation
"C[C@@H]1C[C@H](C)CN(S(=O)(=O)c2ccc3c(c2)C(=NO)c2cc(S(=O)(=O)N4C[C@H](C)C[C@H](C)C4)ccc2C3=NO)C1 [BC2059, Tegavivint]",Effect on TBL1's repressive activity on transcription,[3],dose-dependent interference
same,Effect on TPL H1 repression,[4],unaffected
same,Responsiveness of TBL1 H1 cancer variant mutations to the compound,[5],Certain cancer mutants were less sensitive to treatment
"DmGID8: H1 tested in tobacco; probably H1-DmDMEI, ADLNRLVMNYLVT, SEQ ID NO: 38 (listed as Drosophila sechellia)",Repression of reporter in planta,[6],not functional
"F10A: TPL H1 mutant RELVALILQFLDE, SEQ ID NO: 121",Time course flow cytometry following auxin addition (de-repression),"[1]; AtARCSc in yeast, auxin (IAA-10 μM) added","strengthened the durability of repression H1, converting it into an auxin-insensitive repression domain; also recorded: loss of auxin sensitivity"
same,Repression of reporter in planta,[6],improvements in repression in tobacco compared to wild type
"H856Y: cancer variant H1 KELLLLIRNYLIS, SEQ ID NO: 87",Repression activity of H1-HA-IAA3 library constructs,[1],not significantly affected
same,Protein accumulation / stability,[2],not significantly affected
"HsLIS1: H1 sequence DELNRAIADYLRS, SEQ ID NO: 63 (listed as Homo sapiens)",Repression activity of H1-HA-IAA3 library constructs,[1],repressive
same,Protein accumulation / stability,[2],well expressed
"HsTBL1X Y64C: cancer variant H1 DEVNFLVCRYLQE, SEQ ID NO: 81",Repression activity of H1-HA-IAA3 library constructs,[1],strongest repressor
same,Protein accumulation / stability,[2],highest accumulation
"L851F: cancer variant H1 KELLFLIRNHLIS, SEQ ID NO: 84",Repression activity of H1-HA-IAA3 library constructs,[1],dramatically reduces
same,Protein accumulation / stability,[2],dramatically reduces
"PfGID8: H1 tested in tobacco; perhaps H1-BCR36DRAFT, KDLNKLIMNYLVI, SEQ ID NO: 36 (listed as Chytriomyces confervae)",Repression of reporter in planta,[6],less
"R6E: TPL H1 mutant EELVFLILQFLDE, SEQ ID NO: 91",Repression activity of H1-HA-IAA3 library constructs,[1],loss of repression
same,Protein accumulation / stability,[2],negative effect on protein accumulation
"R6N: TPL H1 mutant NELVFLILQFLDE, SEQ ID NO: 94",Repression activity of H1-HA-IAA3 library constructs,[1],loss of repression
same,Protein accumulation / stability,[2],negative effect on protein accumulation
"R6V: TPL H1 mutant VELVFLILQFLDE, SEQ ID NO: 106",Repression activity of H1-HA-IAA3 library constructs,[1],loss of repression
same,Protein accumulation / stability,[2],negative effect on protein accumulation
"R14W: cancer variant H1 DEVNFLVYWYLQE, SEQ ID NO: 83",Repression activity of H1-HA-IAA3 library constructs,[1],higher repression rates
same,Protein accumulation / stability,[2],reductions in protein abundance
"R65Q: cancer variant H1 DEVNFLVYQYLQE, SEQ ID NO: 82",Repression activity of H1-HA-IAA3 library constructs,[1],higher repression rates
same,Protein accumulation / stability,[2],reductions in protein abundance
"R854Q: cancer variant H1 KELLLLIQNHLIS, SEQ ID NO: 86",Repression activity of H1-HA-IAA3 library constructs,[1],increase
same,Protein accumulation / stability,[2],slightly increasing protein accumulation
"SpHIF2: H1 sequence NQVNYIIWRYLKE, SEQ ID NO: 17 (Schizosaccharomyces pombe)",Repression activity of H1-HA-IAA3 library constructs,[1],not detected
same,Protein accumulation / stability,[2],very poor protein stability
